Type in all cases: functional
One test concerns Escherichia coli. The test is described as follows: Antibacterial activity against Escherichia coli XL-1 blue assessed as decrease in survival at 50 x 10^-6 M by turbidimetric method.
For test [1], the system named is Staphylococcus capitis. The test is described as follows: Antibacterial activity against Staphylococcus capitis ATCC 2784 assessed as decrease in survival at 50 x 10^-6 M by turbidimetric method.
Test [2] relates to Staphylococcus capitis. Put plainly: Antibacterial activity against Staphylococcus capitis ATCC 2784 assessed as decrease in survival at 0.5 M by turbidimetric method.
In test [3] the test system is Staphylococcus capitis. Put plainly: Antibacterial activity against Staphylococcus capitis ATCC 2784 assessed as decrease in survival at 1.3 M by turbidimetric method.

For the molecule `COc1c(/C=N/CCC/N=C/c2c(O)cc3oc(C)cc(=O)c3c2OC)c(O)cc2oc(C)cc(=O)c12`, the Activity in the test on Escherichia coli is 30%; in the test on Staphylococcus capitis [1] it was 55%.
In the case of `COc1c(/C=N/CC/N=C/c2c(O)cc3oc(C)cc(=O)c3c2OC)c(O)cc2oc(C)cc(=O)c12`, the Activity in the test on Escherichia coli is 54%; in the test on Staphylococcus capitis [1], 40%.
On to `CN(C)C=O` [DIMETHYLFORMAMIDE], for which the values for the Activity in the test with Staphylococcus capitis [2] and with Staphylococcus capitis [3] were 10% and 80%, respectively.
As to `Cc1cc(=O)c2c(O)c(/C=N/CCC/N=C/c3c(O)cc4oc(C)cc(=O)c4c3O)c(O)cc2o1`, the Activity in the test with Escherichia coli amounted to 35%; in the test with Staphylococcus capitis [1], 70%.
In the case of `Cc1cc(=O)c2c(O)c(/C=N/CC/N=C/c3c(O)cc4oc(C)cc(=O)c4c3O)c(O)cc2o1`, the figures for the Activity in the test with Escherichia coli and with Staphylococcus capitis [1] were 60% and 50%, respectively.

Source of the values: ChEMBL document CHEMBL1156257, “Antibacterial effect of some benzopyrone derivatives” (2010).
